Test results: ChEMBL document CHEMBL1201862, “PubChem BioAssay data set” (2004)
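These data come from cells grown in 96-well plates and exposed to compound for 48 hours at five concentrations. GI50 is the concentration that inhibits growth by half.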 Active and inactive are the calls of the source. Rule as the data show it: active = GI50 up to about 1.1 µM and inactive = higher.

Assays:
Test in all cases: NCI-60 cell line screen, 48 h
DLD-1 = tested on: DLD-1
DMS-273 = tested on: DMS-273
HOP-18 = tested on: HOP-18
M19-MEL = tested on: M19-MEL
RXF 631 = tested on: RXF 631
XF498 = tested on: XF498

Measured: GI50

COc1ccc(C(c2ccc(C(C)C)cc(=O)c2O)c2c(O)cc3oc(-c4ccccc4)cc(=O)c3c2O)cc1 (stereo not drawn)
inactive: DLD-1 4.11 µM | DMS-273 5.08 µM | HOP-18 17.3 µM | M19-MEL 7.33 µM | RXF 631 11.3 µM | XF498 9.4 µM

COc1cccc(/C=C/C(=O)c2sc(C(N)=S)nc2C)c1O
inactive: DLD-1 28.3 µM | DMS-273 28.6 µM | HOP-18 > 41.5 µM | M19-MEL 34.4 µM | RXF 631 31.1 µM | XF498 > 100 µM

C#C[C@H](CCCC)OC(=O)N[C@H](C)c1ccccc1
inactive: DLD-1 55.2 µM | DMS-273 38.8 µM | HOP-18 > 100 µM | M19-MEL 30.5 µM | RXF 631 62.1 µM | XF498 84.1 µM
